Earlier results on one compound are cited in PMC12682947, “Identification of New KCNT1‐Epilepsy Drugs by In Silico, Cell, and Drosophila Modeling” (Annals of Neurology, 2025).

What is called IC50 is the midpoint of a concentration-inhibition curve.

The data set deals with hERG potassium channels. Particulars: read-out: IC50 for inhibition of hERG potassium channels; cited from earlier work.

Where a name gives a salt, the structure may show the parent alone.

`Cc1c(O)cccc1C(=O)N[C@@H](CSc1ccccc1)[C@H](O)CN1C[C@H]2CCCC[C@H]2C[C@H]1C(=O)NC(C)(C)C` [nelfinavir mesylate]: the IC50 was 11.5 µM.
